Each compound was assayed against T1, recombinant human Meningioma Expressed Antigen 5 (MGEA5), also referred to as O-GlcNAcase (OGA) (Homo sapiens, UniProt O60502) (assay: OGA biochemical assay (inhibition of FM-GlcNAc hydrolysis, fluorescence)). Details: FM-GlcNAc substrate, 6 h at room temperature, read-out: Enzymatic hOGA, pIC50 (converted).
T1 construct: Full length OGA enzyme was purchased at OriGene (cat #TP322411); purchased OriGene TP322411
T1 sequence (O60502 1-916): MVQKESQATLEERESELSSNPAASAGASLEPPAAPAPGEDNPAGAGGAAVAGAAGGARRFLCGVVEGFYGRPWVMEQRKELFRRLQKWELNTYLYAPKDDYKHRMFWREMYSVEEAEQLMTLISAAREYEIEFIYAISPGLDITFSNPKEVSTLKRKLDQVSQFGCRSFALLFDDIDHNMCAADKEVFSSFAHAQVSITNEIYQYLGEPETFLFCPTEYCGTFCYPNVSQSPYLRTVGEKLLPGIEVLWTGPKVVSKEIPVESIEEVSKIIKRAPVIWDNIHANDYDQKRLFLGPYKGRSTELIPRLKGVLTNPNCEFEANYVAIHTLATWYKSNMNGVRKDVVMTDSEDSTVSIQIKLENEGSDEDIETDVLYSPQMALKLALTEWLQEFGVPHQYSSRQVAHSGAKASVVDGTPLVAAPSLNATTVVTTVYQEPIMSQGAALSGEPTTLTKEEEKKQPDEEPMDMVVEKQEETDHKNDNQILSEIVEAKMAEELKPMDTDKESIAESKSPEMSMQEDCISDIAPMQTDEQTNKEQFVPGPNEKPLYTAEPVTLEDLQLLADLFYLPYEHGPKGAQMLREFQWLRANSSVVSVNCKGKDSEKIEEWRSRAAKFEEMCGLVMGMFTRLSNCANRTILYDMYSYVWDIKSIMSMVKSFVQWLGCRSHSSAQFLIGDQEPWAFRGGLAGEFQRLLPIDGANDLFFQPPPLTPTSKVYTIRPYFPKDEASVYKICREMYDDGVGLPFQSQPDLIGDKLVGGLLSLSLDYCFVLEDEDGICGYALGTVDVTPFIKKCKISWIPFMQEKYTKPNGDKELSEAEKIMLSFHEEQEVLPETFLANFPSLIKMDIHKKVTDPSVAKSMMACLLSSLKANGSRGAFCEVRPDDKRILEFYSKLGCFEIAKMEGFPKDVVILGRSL
Text: The assay is based on the inhibition of the hydrolysis of fluorescein mono-β-D-N-Acetyl-Glucosamine (FM-GlcNAc) (Mariappa et al. 2015, Biochem J 470:255) by the recombinant human Meningioma Expressed Antigen 5 (MGEA5), also referred to as O-GlcNAcase (OGA). The hydrolysis FM-GlcNAc (Marker Gene technologies, cat #M1485) results in the formation of β-D-N-glucosamineacetate and fluorescein. The fluorescence of the latter can be measured at excitation wavelength 485 nm and emission wavelength 538 nm. An increase in enzyme activity results in an increase in fluorescence signal. Full length OGA enzyme was purchased at OriGene (cat #TP322411). The enzyme was stored in 25 mM Tris.HCl, pH 7.3, 100 mM glycine, 10% glycerol at −20° C. Thiamet G and GlcNAcStatin were tested as reference compounds (Yuzwa et al. 2008 Nature Chemical Biology 4:483; Yuzwa et al. 2012 Nature Chemical Biology 8:393). The assay was performed in 200 mM Citrate/phosphate buffer supplemented with 0.005% Tween-20. 35.6 g Na2HPO4 2H2O (Sigma, #C0759) were dissolved in 1 L water to obtain a 200 mM solution. 19.2 g citric acid (Merck, #1.06580) was dissolved in 1 L water to obtain a 100 mM solution. pH of the sodiumphosphate solution was adjusted with the citric acid solution to 7.2. The buffer to stop the reaction consists of a 500 mM Carbonate buffer, pH 11.0. 734 mg FM-GlcNAc were dissolved in 5.48 mL DMSO to obtain a 250 mM solution and was stored at −20° C. OGA was used at a 2 nM concentration and FM-GlcNAc at a 100 uM final concentration. Dilutions were prepared in assay buffer.
50 nl of a compound dissolved in DMSO was dispensed on Black Proxiplate™ 384 Plus Assay plates (Perkin Elmer, #6008269) and 3 μl fl-OGA enzyme mix added subsequently. Plates were pre-incubated for 60 min at room temperature and then 2 μl FM-GlcNAc substrate mix added. […] Plates were briefly centrifuged for 1 min at 1000 rpm and incubate at room temperature for 6 h. To stop the reaction 5 μl STOP buffer were added and plates centrifuge again 1 min at 1000 rpm. Fluorescence was quantified in the Thermo Scientific Fluoroskan Ascent or the PerkinElmer EnVision with excitation wavelength 485 nm and emission wavelength 538 nm.
For analysis a best-fit curve is fitted by a minimum sum of squares method. From this an IC50 value and Hill coefficient was obtained. High control (no inhibitor) and low control (saturating concentrations of standard inhibitor) were used to define the minimum and maximum values.

SMILES | IC50 [µM]
Cc1cc(C2CCCN(C(C)c3ccc4oc(C)nc4n3)C2)cc(C(F)(F)F)n1 (racemic) [Compound 19] | 0.02
Cc1cc(C[C@H]2CCCN(C(C)c3ccc4oc(C)nc4n3)C2)cc(C(F)(F)F)n1 (mixture of isomers) [Compound 24ab] | 0.0126

Now from value to compound:

IC50 [µM] | SMILES
0.02 | COc1cc(C2CCCN(C(C)c3ccc4oc(C)nc4n3)C2)cc(C)n1 (racemic) [Compound 18]
0.02 | COc1cc(C2CCCN(C(C)c3ccc4oc(C)nc4n3)C2)cc(C(F)(F)F)n1 (racemic) [Compound 20]
0.00316 | Cc1cc(C[C@H]2CCCN(C(C)c3ccc4oc(C)nc4n3)C2)cc(C)n1 (mixture of isomers) [Compound 22]

Same assay, conditions: FM-GlcNAc substrate, maximal effect, read-out: Enzymatic Emax (%)

SMILES | Emax [%]
Cc1cc(C2CCCN(C(C)c3ccc4oc(C)nc4n3)C2)cc(C(F)(F)F)n1 (racemic) [Compound 19] | 99
Cc1cc(C[C@H]2CCCN(C(C)c3ccc4oc(C)nc4n3)C2)cc(C(F)(F)F)n1 (mixture of isomers) [Compound 24ab] | 103

Other lines, results leading:

Emax [%] | SMILES
100 | COc1cc(C2CCCN(C(C)c3ccc4oc(C)nc4n3)C2)cc(C)n1 (racemic) [Compound 18]
101 | COc1cc(C2CCCN(C(C)c3ccc4oc(C)nc4n3)C2)cc(C(F)(F)F)n1 (racemic) [Compound 20]
101 | Cc1cc(C[C@H]2CCCN(C(C)c3ccc4oc(C)nc4n3)C2)cc(C)n1 (mixture of isomers) [Compound 22]

Each compound was assayed against T2, OGA (Homo sapiens, UniProt O60502) (assay: OGA cellular assay (ICC detection of O-GlcNAcylated proteins in HEK293 cells inducible for P301L mutant human Tau)). Details: HEK293, HEK293 cells inducible for P301L mutant human Tau, maximum = Thiamet G 200 uM.
T2 construct: HEK293 cells inducible for P301L mutant human Tau (isoform 2N4R) were established at Janssen; endogenous in cells; host or cells: HEK293 cells inducible for P301L mutant human Tau (2N4R)
T2 sequence (O60502 1-916): T1 sequence (O60502 1-916)
Type: cell-based
Experimental: HEK293 cells inducible for P301L mutant human Tau (isoform 2N4R) were established at Janssen. Thiamet-G was used for both plate validation (high control) and as reference compound (reference EC50 assay validation). OGA inhibition is evaluated through the immunocytochemical (ICC) detection of O-GlcNAcylated proteins by the use of a monoclonal antibody (CTD110.6; Cell Signaling, #9875) detecting 0-GlcNAcylated residues as previously described (Dorfmueller et al. 2010 Chemistry & biology, 17:1250). Inhibition of OGA will result in an increase of O-GlcNAcylated protein levels resulting in an increased signal in the experiment. Cell nuclei are stained with Hoechst to give a cell culture quality control and a rough estimate of immediate compounds toxicity, if any. ICC pictures are imaged with a Perkin Elmer Opera Phenix plate microscope and quantified with the provided software Perkin Elmer Harmony 4.1.
Cells were propagated in DMEM high Glucose (Sigma, #D5796) following standard procedures. 2 days before the cell assay cells are split, counted and seeded in Poly-D-Lysine (PDL) coated 96-wells (Greiner, #655946) plate at a cell density of 12,000 cells per cm^2 (4,000 cells per well) in 100 μl of Assay Medium (Low Glucose medium is used to reduce basal levels of GlcNAcylation) (Park et al. 2014 The Journal of biological chemistry 289:13519). At the day of compound test medium from assay plates was removed and replenished with 90 μl of fresh Assay Medium. 10 μl of compounds at a 10fold final concentration were added to the wells. Plates were centrifuged shortly before incubation in the cell incubator for 6 hours. DMSO concentration was set to 0.2%. Medium is discarded by applying vacuum. For staining of cells medium was removed and cells washed once with 100 μl D-PBS (Sigma, #D8537). From next step onwards unless other stated assay volume was always 50 μl and incubation was performed without agitation and at room temperature. Cells were fixed in 50 μl of a 4% paraformaldehyde (PFA, Alpha aesar, #043368) PBS solution for 15 minutes at room temperature. […] Before analysis samples were washed 2 times manually for 5 minutes in ICC base buffer.
Imaging is performed using Perkin Elmer Phenix Opera using a water 20× objective and recording 9 fields per well. Intensity readout at 488 nm is used as a measure of O-GlcNAcylation level of total proteins in wells. To assess potential toxicity of compounds nuclei were counted using the Hoechst staining. IC50-values are calculated using parametric non-linear regression model fitting. As a maximum inhibition Thiamet G at a 200 uM concentration is present on each plate. In addition, a concentration response of Thiamet G is calculated on each plate.

SMILES | Emax [%]
Cc1cc(C2CCCN(C(C)c3ccc4oc(C)nc4n3)C2)cc(C(F)(F)F)n1 (racemic) [Compound 19] | 68
Cc1cc(C[C@H]2CCCN(C(C)c3ccc4oc(C)nc4n3)C2)cc(C(F)(F)F)n1 (mixture of isomers) [Compound 24ab] | 91

Results, then the compound that gave them:

Emax [%] | SMILES
76 | COc1cc(C2CCCN(C(C)c3ccc4oc(C)nc4n3)C2)cc(C)n1 (racemic) [Compound 18]
60 | COc1cc(C2CCCN(C(C)c3ccc4oc(C)nc4n3)C2)cc(C(F)(F)F)n1 (racemic) [Compound 20]
91 | Cc1cc(C[C@H]2CCCN(C(C)c3ccc4oc(C)nc4n3)C2)cc(C)n1 (mixture of isomers) [Compound 22]

Same assay, conditions: HEK293 cells inducible for P301L mutant human Tau, 6 hours incubation; read-out: Cellular hOGA; pEC50 (converted)

SMILES | EC50 [µM]
Cc1cc(C2CCCN(C(C)c3ccc4oc(C)nc4n3)C2)cc(C(F)(F)F)n1 (racemic) [Compound 19] | 0.501
Cc1cc(C[C@H]2CCCN(C(C)c3ccc4oc(C)nc4n3)C2)cc(C(F)(F)F)n1 (mixture of isomers) [Compound 24ab] | 0.0501

Further lines, results first:

EC50 [µM] | SMILES
0.158 | COc1cc(C2CCCN(C(C)c3ccc4oc(C)nc4n3)C2)cc(C)n1 (racemic) [Compound 18]
0.631 | COc1cc(C2CCCN(C(C)c3ccc4oc(C)nc4n3)C2)cc(C(F)(F)F)n1 (racemic) [Compound 20]
0.0126 | Cc1cc(C[C@H]2CCCN(C(C)c3ccc4oc(C)nc4n3)C2)cc(C)n1 (mixture of isomers) [Compound 22]

Reference: patent US20210115040A1, “OGA INHIBITOR COMPOUNDS” (Janssen Pharmaceutica NV, priority 2018, published 2021)
